What was measured:
Cabbage Looper (CL) = test: Bioassays on CL, 128-well diet tray assay; format: in vivo; settings: Trichoplusia ni; for mortality at 50 µg/cm2: 168 h, 50 μg/cm^2 on artificial diet, second instar larvae, five to seven days, 25° C., read-out: CL % Control (or Mortality) rating; for mortality at 0.05 µg/cm2: 0.05 μg/cm^2; for mortality at 0.05 µg/cm2 / mortality at 0.5 µg/cm2 / mortality at 5 µg/cm2: read-out: CL Percent control (or mortality); for mortality at 0.5 µg/cm2: 0.5 μg/cm^2; for mortality at 5 µg/cm2: 5 μg/cm^2
Summary of the method: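 Second-instar larvae, one to five per well, were placed on artificial diet treated with 50 μg/cm^2 compound (in 90:10 acetone-water) and dried, with eight wells per compound. Trays were held at 25° C, 14:10 light-dark, for five to seven days. Percent mortality was scored per well and averaged.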

Green Peach Aphid (GPA) = test: Bioassays on Green Peach Aphid, cabbage seedling foliar spray; format: in vivo; settings: Myzus persicae, 72 h; 200 ppm foliar spray on cabbage seedlings, three days, Abbott corrected % control; read-out: GPA % Control (or Mortality) rating
Experimental: Cabbage seedlings grown in 3-inch pots, with 2-3 small (3-5 cm) true leaves, were used as test substrate. The seedlings were infested with 20-50 GPA (wingless adult and nymph stages) one day prior to chemical application. Four pots with individual seedlings were used for each treatment. Test compounds (2 mg) were dissolved in 2 mL of acetone/MeOH (1:1) solvent, forming stock solutions of 1000 ppm test compound. The stock solutions were diluted 5× with 0.025% Tween 20 in water to obtain the solution at 200 ppm test compound. A hand-held aspirator-type sprayer was used for spraying a solution to both sides of […] leaves until runoff. Reference plants (solvent check) were sprayed with the diluent only containing 20% by volume of acetone/MeOH (1:1) solvent. Treated plants were held in a holding room for three days at approximately 25° C. and ambient relative humidity (RH) prior to grading. Evaluation was conducted by counting the number of live aphids per plant under a microscope. Percent Control was measured by using Abbott's correction formula (W. S. Abbott, “A Method of Computing the Effectiveness of an Insecticide” J. Econ. Entomol. 18 (1925), pp. 265-267) as follows. Corrected % Control=100*(X−Y)/X where X=No. of live aphids on solvent check plants and Y=No. of live aphids on treated plants. The results are indicated in the table entitled “Table ABC: Assay Results (F)” and “Table ABCD: Assay Results (C)” (See Table Section).

Beet Armyworm (BAW) = test: Bioassays on BAW, 128-well diet tray assay; format: in vivo; settings: Spodoptera exigua; for mortality at 50 µg/cm2: 168 h, 50 μg/cm^2 on artificial diet, second instar larvae, five to seven days, 25° C., read-out: BAW % Control (or Mortality) rating; for mortality at 0.05 µg/cm2: 0.05 μg/cm^2; for mortality at 0.05 µg/cm2 / mortality at 0.5 µg/cm2 / mortality at 5 µg/cm2: read-out: BAW Percent control (or mortality); for mortality at 0.5 µg/cm2: 0.5 μg/cm^2; for mortality at 5 µg/cm2: 5 μg/cm^2
Summary of the method: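 Test compound was applied at 50 μg/cm^2 in 90:10 acetone-water to the artificial diet surface and dried, with eight wells per compound. One to five second-instar beet armyworm larvae were placed per well and held at 25 °C, 14:10 light-dark, for five to seven days. Percent mortality was averaged over the wells.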

[1] = test system: Yellow Fever Mosquito (YFM); format: in vivo, Aedes aegypti; settings: 15 μL of diluted 4000 ppm master solution per well, about 1 day-old larvae, 3 days
Experimental: Master plates containing 400 μg of a molecule dissolved in 100 μL of dimethyl sulfoxide (DMSO) (equivalent to a 4000 ppm solution) are used. A master plate of assembled molecules contains 15 μL per well. To this plate, 135 μL of a 90:10 water:acetone mixture is added to each well. A robot (Biomek® NXP Laboratory Automation Workstation) is programmed to dispense 15 μL aspirations from the master plate into an empty 96-well shallow plate (“daughter” plate). There are 6 reps (“daughter” plates) created per master. The created daughter plates are then immediately infested with YFM larvae. The day before plates are to be treated, mosquito eggs are placed in Millipore water containing liver powder to begin hatching (4 g. into 400 mL). After the daughter plates are created using the robot, they are infested with 220 μL of the liver powder/larval mosquito mixture (about 1 day-old larvae). After plates are infested with mosquito larvae, a non-evaporative lid is used to cover the plate to reduce drying. Plates are held at room temperature for 3 days prior to grading. After 3 days, each well is observed and scored based on mortality. The results are indicated in the table entitled “Table ABC: Assay Results (F)” and “Table ABCD: Assay Results (C)” (See Table Section). Pesticidally Acceptable Acid Addition Salts, Salt Derivatives, Solvates, Ester Derivatives, Polymorphs, Isotopes and Radionuclides

| SMILES | mortality at 50 µg/cm2 (Cabbage Looper (CL)) | mortality at 200 ppm (Green Peach Aphid (GPA)) | mortality at 50 µg/cm2 (Beet Armyworm (BAW)) | mortality at 0.05 µg/cm2 (Cabbage Looper (CL)) | mortality at 0.5 µg/cm2 (Cabbage Looper (CL)) | mortality at 5 µg/cm2 (Cabbage Looper (CL)) | YFM % Control (or Mortality) rating [1] | mortality at 0.05 µg/cm2 (Beet Armyworm (BAW)) | mortality at 0.5 µg/cm2 (Beet Armyworm (BAW)) | mortality at 5 µg/cm2 (Beet Armyworm (BAW)) |
| --- | --- | --- | --- | --- | --- | --- | --- | --- | --- | --- |
| C[C@H](NC(=O)C[S+](C)[O-])NC(=O)c1ccc(/C=C/C(c2cc(Cl)c(Cl)c(Cl)c2)C(F)(F)F)cc1C(F)(F)F (stereo partly drawn) [Compound P36, N-((1S)-1-(2-(Methylsulfinyl)acetamido)ethyl)-4-((E)-4,4,4-trifluoro-3-(3,4,5-trichlorophenyl)but-1-en-1-yl)-2-(trifluoromethyl)benzamide] | 50 to 100% | 0% | 50 to 100% | – | – | – | – | – | – | – |
| C[C@H](NC(=O)CC[S+](C)[O-])NC(=O)c1ccc(/C=C/C(c2cc(Cl)c(Cl)c(Cl)c2)C(F)(F)F)cc1C(F)(F)F (stereo partly drawn) [Compound P49, N-((1R)-1-(3-(methylsulfinyl)propanamido)ethyl)-4-((E)-4,4,4-trifluoro-3-(3,4,5-trichlorophenyl)but-1-en-1-yl)-2-(trifluoromethyl)benzamide] | 50 to 100% | 0 to 80% | 50 to 100% | – | – | – | – | – | – | – |
| C[C@H](NC(=O)CC(F)(F)F)NC(=O)c1ccc(/C=C/C(c2cc(Cl)c(Cl)c(Cl)c2)C(F)(F)F)cc1C(F)(F)F (stereo partly drawn) [Compound F2, 4-((E)-4,4,4-trifluoro-3-(3,4,5-trichlorophenyl)but-1-en-1-yl)-2-(trifluoromethyl)-N—((R)-1-(3,3,3-trifluoropropanamido)ethyl)benzamide] | 50 to 100% | 0% | 50 to 100% | 100% | 100% | 100% | A (80-100) | 100% | 100% | 100% |
| CC(CC(=O)N[C@@H](C)NC(=O)c1ccc(/C=C/C(c2cc(Cl)c(Cl)c(Cl)c2)C(F)(F)F)cc1C(F)(F)F)C(F)(F)F (stereo partly drawn) [Compound F16, 4-((E)-4,4,4-Trifluoro-3-(3,4,5-trichlorophenyl)but-1-en-1-yl)-N-((1R)-1-(4,4,4-trifluoro-3-methylbutanamido)ethyl)-2-(trifluoromethyl)benzamide] | 50 to 100% | – | 50 to 100% | – | – | – | A (80-100) | – | – | – |
| C[C@@H](NC(=O)c1ccc(/C=C/C(c2cc(Cl)c(Cl)c(Cl)c2)C(F)(F)F)cc1C(F)(F)F)NC(=O)C1(C#N)CC1 (stereo partly drawn) [Compound F14, N—((S)-1-(1-cyanocyclopropanecarboxamido)ethyl)-4-((E)-4,4,4-trifluoro-3-(3,4,5-trichlorophenyl)but-1-en-1-yl)-2-(trifluoromethyl)benzamide] | 50 to 100% | – | 50 to 100% | – | – | – | A (80-100) | – | – | – |
| C[C@H](NC(=O)CCC#N)NC(=O)c1ccc(/C=C/C(c2cc(Cl)c(Cl)c(Cl)c2)C(F)(F)F)cc1C(F)(F)F (stereo partly drawn) [Compound F9, N—((R)-1-(3-cyanopropanamido)ethyl)-4-((E)-4,4,4-trifluoro-3-(3,4,5-trichlorophenyl)but-1-en-1-yl)-2-(trifluoromethyl)benzamide] | 50 to 100% | – | 50 to 100% | – | – | – | A (80-100) | – | – | – |
| C[C@H](NC(=O)CC(C)(C)C)NC(=O)c1ccc(/C=C/C(c2cc(Cl)c(Cl)c(Cl)c2)C(F)(F)F)cc1C(F)(F)F (stereo partly drawn) [Compound F15, N—((R)-1-(3,3-Dimethylbutanamido)ethyl)-4-((E)-4,4,4-trifluoro-3-(3,4,5-trichlorophenyl)but-1-en-1-yl)-2-(trifluoromethyl)benzamide] | 50 to 100% | – | 50 to 100% | – | – | – | A (80-100) | – | – | – |
| CCCCCC(=O)N[C@@H](C)NC(=O)c1ccc(/C=C/C(c2cc(Cl)c(Cl)c(Cl)c2)C(F)(F)F)cc1C(F)(F)F (stereo partly drawn) [Compound F3, N—((R)-1-hexanamidoethyl)-4-((E)-4,4,4-trifluoro-3-(3,4,5-trichlorophenyl)but-1-en-1-yl)-2-(trifluoromethyl)benzamide] | 50 to 100% | – | 50 to 100% | – | – | – | A (80-100) | – | – | – |
| C[C@H](NC(=O)CC(F)(F)F)NC(=O)c1ccc(/C=C/C(c2cc(Cl)c(Cl)c(Cl)c2)C(F)(F)F)cc1Br (stereo partly shown) [Compound P24] | 50 to 100% | – | 50 to 100% | 6% | 19% | 100% | D (No activity noticed in this bioassay) | 0% | 7% | 87% |
| CCCCC(=O)N[C@@H](C)NC(=O)c1ccc(/C=C/C(c2cc(Cl)c(Cl)c(Cl)c2)C(F)(F)F)cc1C(F)(F)F (stereo partly drawn) [Compound F5, N—((R)-1-Pentanamidoethyl)-4-((E)-4,4,4-trifluoro-3-(3,4,5-trichlorophenyl)but-1-en-1-yl)-2-(trifluoromethyl)benzamide] | 50 to 100% | – | 50 to 100% | – | – | – | A (80-100) | – | – | – |
| Cc1cc(/C=C/C(c2cc(Cl)c(F)c(Cl)c2)C(F)(F)F)ccc1C(=O)N[C@H](C)NC(=O)CCC(F)(F)F (stereo partly drawn) [Compound P13, 4-((E)-3-(3,5-Dichloro-4-fluorophenyl)-4,4,4-trifluorobut-1-en-1-yl)-2-methyl-N—((R)-1-(4,4,4-trifluorobutanamido)ethyl)benzamide] | 50 to 100% | – | 50 to 100% | – | – | – | A (80-100) | – | – | – |
| C[C@H](NC(=O)CCC(F)(F)F)NC(=O)c1ccc(/C=C/C(c2cc(Cl)c(Cl)c(Cl)c2)C(F)(F)F)cc1Br (stereo partly drawn) [Compound P27, 2-Bromo-4-((E)-4,4,4-trifluoro-3-(3,4,5-trichlorophenyl)but-1-en-1-yl)-N—((R)-1-(4,4,4-trifluorobutanamido)ethyl)benzamide] | 50 to 100% | – | 50 to 100% | 0% | 7% | 100% | B (More than 0-Less than 80) | 0% | 0% | 7% |
| Cc1cc(/C=C/C(c2cc(Cl)c(F)c(Cl)c2)C(F)(F)F)ccc1C(=O)N[C@H](C)NC(=O)CC(F)(F)F (stereo partly drawn) [Compound P5, 4-((E)-3-(3,5-Dichloro-4-fluorophenyl)-4,4,4-trifluorobut-1-en-1-yl)-2-methyl-N—((R)-1-(3,3,3-trifluoropropanamido)ethyl)benzamide] | 50 to 100% | – | 50 to 100% | – | – | – | A (80-100) | – | – | – |
| CC[C@H](NC(=O)CCC(F)(F)F)NC(=O)c1ccc(/C=C/C(c2cc(Cl)c(Cl)c(Cl)c2)C(F)(F)F)cc1C(F)(F)F (stereo partly drawn) [Compound F12, 4-((E)-4,4,4-Trifluoro-3-(3,4,5-trichlorophenyl)but-1-en-1-yl)-N—((R)-1-(4,4,4-trifluorobutanamido)propyl)-2-(trifluoromethyl)benzamide] | 50 to 100% | – | 50 to 100% | – | – | – | A (80-100) | – | – | – |

— US9676704B2, “Pesticidal compositions and processes related thereto” (Dow AgroSciences LLC, priority 2014, dated 2017)
